This note sets out measurements from PubChem BioAssay AID1996.

Each structure is given as a SMILES string. Values after ≈ are worked out from the molar mass of the structure shown.

The conditions of this series: buffer; pH 7.4; 200.0 µM.
What is called kinetic solubility is solubility judged after dilution from a stock solution rather than from solid. For `CCOc1ccc(CSC(=N)N)cc1Cl.Cl`, the solubility (kinetic) was above 42.2 µg/mL.
For the molecule `CCCOc1ccc(C2=CSC3=NCCN23)cc1.Cl`, the solubility (kinetic) was 37.4 µg/mL.
The same measure for `COc1ccc(C)cc1NC(=S)NN1CCN(C)CC1`: above 44.2 µg/mL; for `COC(=O)c1scc(C)c1S(=O)(=O)Nc1ccc(C)cc1`: 6.5 µg/mL (≈ 20 µM).
As for `O=[N+]([O-])c1cc(C(F)(F)F)ccc1NCCc1ccccn1`, the kinetic solubility amounted to 18.8 µg/mL (≈ 60.4 µM).
On to `CC(=O)NCCCNS(=O)(=O)c1ccc(C)cc1`, for which the solubility (kinetic) came out at 32.2 µg/mL (≈ 119 µM).
The same measure for `CC1(C)CC(=O)C2=C(C1)NC(=O)NC2c1ccccc1Cl` (configuration not stated): 45.6 µg/mL (≈ 150 µM); for `O=C1NC(=O)/C(=C/c2ccc(-c3cccc([N+](=O)[O-])c3)o2)S1`: 3.8 µg/mL (≈ 12 µM).
The same measure for `Cc1ccc(S(=O)(=O)N(C)c2ccc(OC(=O)COc3ccccc3)cc2)cc1`: 18.7 µg/mL (≈ 45.4 µM); for `Nc1ccccc1C(=O)NCc1ccc(F)cc1`: above 36.6 µg/mL; for `COc1ccc(C(=O)COC(=O)CN2C(=O)C3CC=CCC3C2=O)c(OC)c1` (configuration not stated): 57.6 µg/mL (≈ 149 µM).
The same measure for `O=C(CCCSc1ccccc1)Nc1cccc(CO)c1`: above 45.2 µg/mL; for `Cc1nc2c(C)cccc2c2c1CCN2c1ccccc1F`: 33.3 µg/mL (≈ 114 µM).
With `Cn1c(CCNC(=O)C2CCCCC2)nc2cc([N+](=O)[O-])ccc21`, the kinetic solubility stood at 44 µg/mL (≈ 133 µM).
As to `Cc1ccc(C(C)C)c(OCC(=O)OCC(=O)NC2CC2)c1`, the kinetic solubility was above 45.8 µg/mL.
`CN(C)CCSc1nc(-c2ccccc2)nc2c1CCCC2` had a solubility (kinetic) of 17.9 µg/mL (≈ 57.1 µM).
For `Cc1ccc(CNCCCSc2ncccn2)cc1`, the solubility (kinetic) amounted to 36.3 µg/mL (≈ 133 µM).
As for `c1ccc(N2CCN(Cc3cnc(N4CCOCC4)s3)CC2)cc1`, the solubility (kinetic) is above 51.7 µg/mL.
`CC(OC(=O)c1cc2sccc2n1C)C(=O)NC(C)(C)C` (configuration not stated) displayed a solubility (kinetic) above 46.3 µg/mL.
The same measure for `CC(=O)Nc1ccc(S(=O)(=O)NC2CCCCCC2)cc1`: 35.1 µg/mL (≈ 113 µM).
The same measure for `Cc1ccccc1NC(=O)/C=C/c1cccs1`: 19.5 µg/mL (≈ 80.1 µM); for `O=C(COC(=O)c1ccc(F)cc1)Nc1ccc2c(c1)OCO2`: 4.5 µg/mL (≈ 14.2 µM); for `O=C(/C=C/Nc1ccccc1O)c1ccco1`: 5.5 µg/mL (≈ 24 µM).
The same measure for `Cc1ccc(CSCc2ccc(C(=O)NC3CC3)o2)cc1`: above 45.2 µg/mL; for `Cc1ccc(N(C)C2=NC(=O)CS2)cc1Cl`: 34.8 µg/mL (≈ 137 µM); for `O=C(CC1CCCCC1)NCc1ccccc1Cl`: 2.9 µg/mL (≈ 10.9 µM).
Regarding `CCCn1c(SCC(=O)Nc2ccc(Cl)cc2)n[nH]c1=O`, the solubility (kinetic) was above 49 µg/mL.
For `Cc1ccc(OCC(=O)N2CCN(C(=O)c3ccncc3)CC2)cc1`, the kinetic solubility was above 50.9 µg/mL.
The same measure for `Cc1ccc([N+](=O)[O-])c(NC(=O)COC(=O)C2CC3CCCC(C2)C3=O)c1C` (configuration not stated): above 58.3 µg/mL.
The molecule `CSc1ncc(Cl)c(C(=O)Nc2cccnc2)n1` yielded a kinetic solubility above 42.1 µg/mL.
The same measure for `Nc1ccc(NC(=O)CCN2CCOCC2)cc1`: 34.8 µg/mL (≈ 140 µM); for `COc1ccc(C(=O)NC(=O)COC(=O)C2CC2C)cc1` (configuration not stated): 13.7 µg/mL (≈ 47 µM); for `COc1ccc(C(=O)NC23CC4CC(CC(C4)C2)C3)cc1`: 1 µg/mL (≈ 3.5 µM).
The same measure for `Fc1cnc(Cl)nc1NC1CCCCC1`: 27.1 µg/mL (≈ 118 µM); for `Cc1cccc(C)c1N1C(=O)CC(N2CCN(S(=O)(=O)c3ccccc3F)CC2)C1=O` (configuration not stated): 50.7 µg/mL (≈ 114 µM); for `CCn1c(NC(=O)C(C)C)c2ccccc2nc1=O`: above 38.9 µg/mL.
For `O=C(O)C1CCCN(C(=O)c2cccc3ccccc23)C1` (configuration not stated), the solubility (kinetic) is above 42.5 µg/mL.
The same measure for `Cc1ccc2nc(-c3cccnc3)c(Nc3ccccc3C)n2c1`: 2.2 µg/mL (≈ 7 µM); for `CCOc1ccc2oc(C(=O)OCC(=O)NC(=O)NC)c(C)c2c1`: 1.9 µg/mL (≈ 5.68 µM).
On to `CNC(=O)C(=O)NCCCN1CCOCC1`, for which the solubility (kinetic) was above 34.4 µg/mL.
Consider `CC(C)c1ccc(NC2CCCN(C(=O)c3cscn3)C2)cc1` (configuration not stated), for which the kinetic solubility was above 49.4 µg/mL.
In the case of `COc1ccccc1-c1cn(-c2ccccc2)c(=S)[nH]1`, the kinetic solubility worked out at 3.8 µg/mL (≈ 13.5 µM).
Molecule `O=C(O)CN1C(=O)NC2(CCCc3ccccc32)C1=O` (configuration not stated) gave a solubility (kinetic) above 41.1 µg/mL.
The molecule `CCCC(=O)C1=C(N2CCCC2)CC(C)(C)C(C(=O)OC)C1=O` (configuration not stated) had a solubility (kinetic) of 44.9 µg/mL (≈ 140 µM).
`Cc1nc2c(C)c(C)c(C)c(C)c2nc1C` gave a solubility (kinetic) below 0.2 µg/mL.
The same measure for `CCOC(=O)CN1N=C(c2ccc(C)cc2)CCC1=O`: above 41.1 µg/mL; for `COCCNC(=S)N1CCN(S(=O)(=O)c2ccc(Cl)s2)CC1`: 11.4 µg/mL (≈ 29.7 µM).
In turn, `O=C(/C=C\c1ccc2c(c1)OCO2)CC1(O)C(=O)Nc2ccccc21` (configuration not stated) gave a kinetic solubility of 24.6 µg/mL (≈ 72.9 µM).
Turning to `CC(C)OC(=O)c1ccc2nc3ccccc3nc2c1`, the kinetic solubility was found to be 1 µg/mL (≈ 3.76 µM).
Molecule `COC(=O)[C@H](CC(C)C)NC(=O)Nc1ccc(F)cc1` showed a kinetic solubility above 42.3 µg/mL.
As for `Nc1c(Cl)nc(-c2ccccc2)nc1Cl`, the solubility (kinetic) was 7.9 µg/mL (≈ 32.9 µM).
The same measure for `O=C(c1cc(=O)[nH]c2ccccc12)N1CCN(c2ccccc2)CC1`: above 50 µg/mL.
